Source: patent US20250361239A1, “PROTEIN DEGRADERS AND USES THEREOF” (ZHUHAI YUFAN BIOTECHNOLOGIES CO., LTD., priority 2022, published 2025)

Test system: HL60 cells
Experiment: HL60 cell killing experiment (CellTiter-Glo cell viability)
Format: cell-based
Conditions: 48 h incubation, CTG luminescence
Experimental: HL60 cell lines were purchased from ATCC (Cat #ATCC® CCL-240™), IMDM media were purchased from ATCC (Cat #ATCC® 30-2005™), FBS was purchased from Gibco (Cat #10091148), celltiter-glo luminescent cell viability assay was purchased from promega (Cat #G7572), and 96-well plates were purchased from corning (Cat #3610).
The effect of compounds on the growth of HL60 cells was determined by measuring cell viability. Firstly, cells in the logarithmic growth phase were collected and centrifuged, and the culture supernatant was discarded. The centrifuged cells were resuspended in a fresh complete medium, and the cell density was adjusted to 5×10^4 cells/mL. The resuspended cells were inoculated into two opaque 96-well cell culture plates at 100 μL of cell suspension per well, and the cell culture plates were incubated in a cell incubator at 37° C. for 4 h. After 4 h, dilutions (20 μL) of compounds with different concentrations were added. After one of the cell plates was cooled to room temperature, 60 μL of CTG reagent was added, and the luminescence values were read on the instrument as G0. The other one was incubated in a cell incubator for 48 h. After 48 h, 60 μL of CTG reagent was added, and the luminescence values were read on the instrument as G3.
According to the corresponding proliferation rate and concentration of each gradient concentration well, a gradient curve of cell proliferation was fitted using XLFit software, and the GI50 values of compounds were calculated.

Row | SMILES | GI50
1 | O=C1CCC(N2C(=O)c3cccc(NCc4cccc(C(=O)NC5CCC(c6n[nH]c7ccccc67)CC5)c4)c3C2=O)C(=O)N1 (centres unmarked) [Example 15] | < 100 nM
2 | O=C1CCC(N2C(=O)c3cccc(NCc4cccc(C(=O)NC5CCC(c6nsc7ccccc67)CC5)c4)c3C2=O)C(=O)N1 (single isomer, unassigned) [Example 53] | < 100 nM
3 | Cn1c(C2CCC(NC(=O)c3cc(CNc4cccc5c4C(=O)N(C4CCC(=O)NC4=O)C5=O)ccn3)CC2)nc2ccncc21 (centres unmarked) [Example 25] | < 100 nM

Same assay, conditions: Homo sapiens, HL-60, 48 h incubation, CTG luminescence

Row | SMILES | GI50
4 | Cn1cc(C2CCOCC2)c2c3nc(C4CCC(NC(=O)CCCCNc5cccc6c5C(=O)N(C5CCC(=O)NC5=O)C6=O)CC4)[nH]c3cnc21 (centres unmarked) [Example 112] | < 100 nM
5 | COc1ccc(CNc2cccc3c2C(=O)N(C2CCC(=O)NC2=O)C3=O)cc1C(=O)N[C@H]1CC[C@H](c2nc3ncccc3s2)CC1 (some centres unmarked) [Example 95] | < 100 nM
6 | O=C1CCC(N2C(=O)c3cccc(NCc4cccc(C(=O)NC5CCC(c6nc7ccccc7s6)CC5)c4)c3C2=O)C(=O)N1 (centres unmarked) [Example 49] | < 100 nM
7 | COc1ccc(CNc2cccc3c2C(=O)N(C2CCC(=O)NC2=O)C3=O)cc1C(=O)N[C@H]1CC[C@H](c2nc3ccncc3s2)CC1 (some centres unmarked) [Example 99] | < 100 nM
8 | COc1ccc2c(c1)nc(C1CCC(NC(=O)c3cccc(CNc4cccc5c4C(=O)N(C4CCC(=O)NC4=O)C5=O)c3)CC1)n2C (centres unmarked) [Example 85] | < 100 nM
9 | O=C1CCC(N2C(=O)c3cccc(NCc4cccc(C(=O)NC5CCC(c6cc7cnccc7s6)CC5)c4)c3C2=O)C(=O)N1 (centres unmarked) [Example 51] | < 100 nM
10 | O=C1CCC(N2C(=O)c3cccc(NCCCCC(=O)NC4CCC(c5nc6c(cnc7[nH]cc(C8CCOCC8)c76)[nH]5)CC4)c3C2=O)C(=O)N1 (centres unmarked) [Example 109] | < 100 nM
11 | O=C1CCC(N2C(=O)c3cccc(NCCCCC(=O)NC4CCC(c5nc6ccncc6[nH]5)CC4)c3C2=O)C(=O)N1 (centres unmarked) [Example 6] | < 100 nM
12 | O=C1CCC(N2C(=O)c3cccc(NCc4cccc(C(=O)NC5CCC(c6nc7ccncc7n6C6COC6)CC5)c4)c3C2=O)C(=O)N1 (centres unmarked) [Example 101] | < 100 nM
13 | O=C1CCC(N2C(=O)c3cccc(NCc4cccc(NC(=O)[C@H]5CC[C@H](c6nc7cccnc7s6)CC5)c4)c3C2=O)C(=O)N1 (some centres unmarked) [Example 59] | < 100 nM
14 | O=C1CCC(N2C(=O)c3cccc(NCc4cccc(C(=O)NC5CCC(c6nsc7ccccc67)CC5)c4)c3C2=O)C(=O)N1 (single isomer, unassigned) [Example 52] | < 100 nM
15 | Cn1c(C2CCC(NC(=O)c3cccc(CNc4cccc5c4C(=O)N(C4CCC(=O)NC4=O)C5=O)c3)CC2)nc2ccccc21 (centres unmarked) [Example 33] | < 100 nM
16 | Cn1c(C2CC3(CC(NC(=O)c4cccc(CNc5cccc6c5C(=O)N(C5CCC(=O)NC5=O)C6=O)c4)C3)C2)nc2ccncc21 (centres unmarked) [Example 69] | < 100 nM
17 | Cn1c2ccncc2nc1[C@H]1CC[C@H](C(=O)Nc2cccc(CNc3cccc4c3C(=O)N(C3CCC(=O)NC3=O)C4=O)c2)CC1 (some centres unmarked) [Example 36] | < 100 nM
18 | O=C1CCC(N2C(=O)c3cccc(NCc4ccnc(C(=O)NC5CCC(c6nc7ccccc7[nH]6)CC5)c4)c3C2=O)C(=O)N1 (centres unmarked) [Example 19] | < 100 nM
19 | O=C1CCC(N2C(=O)c3cccc(NCCCCC(=O)NC4CCC(c5nc6c(cnc7[nH]ccc76)[nH]5)CC4)c3C2=O)C(=O)N1 (centres unmarked) [Example 29] | < 100 nM

Target: T1, GSPT1 (Homo sapiens, UniProt P15170+Q96SW2)
T1 construct: host or cells: HEK293
T1 sequence (P15170 whole entry): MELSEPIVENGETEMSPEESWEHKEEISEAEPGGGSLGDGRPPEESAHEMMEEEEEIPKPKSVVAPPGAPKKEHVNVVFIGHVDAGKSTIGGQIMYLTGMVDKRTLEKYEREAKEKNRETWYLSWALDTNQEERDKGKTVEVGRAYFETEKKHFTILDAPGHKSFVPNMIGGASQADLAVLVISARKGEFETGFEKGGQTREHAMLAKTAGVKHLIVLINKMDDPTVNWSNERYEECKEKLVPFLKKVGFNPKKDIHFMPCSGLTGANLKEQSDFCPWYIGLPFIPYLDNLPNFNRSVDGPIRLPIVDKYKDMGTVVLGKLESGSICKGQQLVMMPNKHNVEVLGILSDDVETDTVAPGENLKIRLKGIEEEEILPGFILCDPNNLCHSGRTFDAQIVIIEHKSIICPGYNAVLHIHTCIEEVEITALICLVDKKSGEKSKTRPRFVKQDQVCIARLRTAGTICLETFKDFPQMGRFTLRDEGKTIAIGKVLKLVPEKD
T1 sequence (Q96SW2 whole entry): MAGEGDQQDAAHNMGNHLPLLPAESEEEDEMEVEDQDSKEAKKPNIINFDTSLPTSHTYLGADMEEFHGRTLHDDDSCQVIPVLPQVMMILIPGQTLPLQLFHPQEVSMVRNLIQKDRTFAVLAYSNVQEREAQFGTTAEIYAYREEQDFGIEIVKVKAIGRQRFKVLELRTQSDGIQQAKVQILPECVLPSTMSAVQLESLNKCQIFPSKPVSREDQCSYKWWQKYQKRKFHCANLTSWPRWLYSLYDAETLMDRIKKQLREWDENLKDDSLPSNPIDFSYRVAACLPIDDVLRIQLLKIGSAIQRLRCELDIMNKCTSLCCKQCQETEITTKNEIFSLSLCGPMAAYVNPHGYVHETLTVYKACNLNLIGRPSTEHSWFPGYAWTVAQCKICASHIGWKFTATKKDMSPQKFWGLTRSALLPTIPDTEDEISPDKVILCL
T1 sequence (Q16531 whole entry partner): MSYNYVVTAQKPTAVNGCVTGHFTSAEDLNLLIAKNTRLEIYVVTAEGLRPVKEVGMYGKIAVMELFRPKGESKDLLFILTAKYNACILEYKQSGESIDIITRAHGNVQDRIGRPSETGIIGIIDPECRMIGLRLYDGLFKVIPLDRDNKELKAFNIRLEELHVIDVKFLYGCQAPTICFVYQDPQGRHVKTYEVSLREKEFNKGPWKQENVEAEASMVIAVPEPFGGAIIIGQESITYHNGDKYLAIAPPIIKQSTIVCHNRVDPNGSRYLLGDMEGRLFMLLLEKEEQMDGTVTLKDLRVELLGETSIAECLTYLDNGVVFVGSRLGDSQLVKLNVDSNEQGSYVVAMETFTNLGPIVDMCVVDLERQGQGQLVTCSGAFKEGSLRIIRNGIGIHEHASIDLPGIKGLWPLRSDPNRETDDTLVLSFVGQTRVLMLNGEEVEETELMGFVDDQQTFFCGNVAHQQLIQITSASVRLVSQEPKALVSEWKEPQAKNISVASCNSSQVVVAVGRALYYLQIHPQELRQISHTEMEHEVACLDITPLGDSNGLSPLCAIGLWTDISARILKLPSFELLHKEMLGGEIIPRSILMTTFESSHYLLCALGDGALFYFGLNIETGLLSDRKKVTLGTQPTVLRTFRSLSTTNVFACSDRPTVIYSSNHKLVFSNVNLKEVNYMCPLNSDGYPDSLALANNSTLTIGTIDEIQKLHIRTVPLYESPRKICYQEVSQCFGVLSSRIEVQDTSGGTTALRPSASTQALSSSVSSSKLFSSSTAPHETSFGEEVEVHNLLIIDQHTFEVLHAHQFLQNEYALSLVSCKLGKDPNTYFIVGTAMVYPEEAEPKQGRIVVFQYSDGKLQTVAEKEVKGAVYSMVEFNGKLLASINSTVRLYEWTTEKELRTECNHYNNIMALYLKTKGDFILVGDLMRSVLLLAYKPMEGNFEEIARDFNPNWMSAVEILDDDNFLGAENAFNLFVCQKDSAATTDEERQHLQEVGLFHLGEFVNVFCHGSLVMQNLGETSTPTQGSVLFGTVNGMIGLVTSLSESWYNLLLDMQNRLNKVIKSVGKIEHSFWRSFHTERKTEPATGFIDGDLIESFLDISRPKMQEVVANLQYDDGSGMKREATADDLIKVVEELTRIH
Experiment: Degradation of GSPT1 by the compounds (HiBiT signal in GSPT1/HEK293 hibit cells)
Format: cell-based
Conditions: 6 h incubation, Nano Glo HiBiT Lytic Detection
Experimental: GSPT1/HEK293 hibit cell lines were constructed by Shanghai BioDuro Co., Ltd., HEK293 cell lines were purchased from ATCC (Cat #ATCC® CRL-1573™), DMEM media were purchased from ATCC (Cat #ATCC® 30-2002™), FBS was purchased from Gibco (Cat #10091148), Nano Glo HiBiT Lytic Detection System was purchased from Promega (Cat #N3040), and 96-well plates were purchased from coming (Cat #3610).
The degradation of GSPT1 by the compounds was determined by measuring the intensity of hibit signals in cells. Firstly, the cells were digested with pancreatin, and the digestion was then terminated with medium. The cells were centrifuged, and the supernatant was discarded. The centrifuged cells were resuspended in a fresh complete medium, and the cell density was adjusted to 2.5×10^4 cells/mL. The resuspended cells were inoculated into an opaque 96-well cell culture plate at 100 μL of cell suspension per well, and the cell culture plate was incubated in a cell incubator at 37° C. overnight. The next day, dilutions (20 μL) of compounds with different concentrations were added, and the plate was incubated in a cell incubator for 6 h. After 6 h, 60 μL of Nano Glo HiBiT Lytic Detection System reagent was added and the luminescence values were read on the instrument.
According to the corresponding degradation rate and concentration of each gradient concentration well, a gradient curve of degradation rate was fitted using XLFit software, and the DC50 values of compounds were calculated.

Row | SMILES | DC50
20 | Cn1cc(C2CCOCC2)c2c3nc(C4CCC(NC(=O)CCCCNc5cccc6c5C(=O)N(C5CCC(=O)NC5=O)C6=O)CC4)[nH]c3cnc21 (centres unmarked) [Example 112] | < 100 nM
21 | COc1ccc(CNc2cccc3c2C(=O)N(C2CCC(=O)NC2=O)C3=O)cc1C(=O)N[C@H]1CC[C@H](c2nc3ncccc3s2)CC1 (some centres unmarked) [Example 95] | < 100 nM
22 | O=C1CCC(N2C(=O)c3cccc(NCc4cccc(C(=O)NC5CCC(c6nc7ccccc7s6)CC5)c4)c3C2=O)C(=O)N1 (centres unmarked) [Example 49] | < 100 nM
23 | COc1ccc(CNc2cccc3c2C(=O)N(C2CCC(=O)NC2=O)C3=O)cc1C(=O)N[C@H]1CC[C@H](c2nc3ccncc3s2)CC1 (some centres unmarked) [Example 99] | < 100 nM
24 | COc1ccc2c(c1)nc(C1CCC(NC(=O)c3cccc(CNc4cccc5c4C(=O)N(C4CCC(=O)NC4=O)C5=O)c3)CC1)n2C (centres unmarked) [Example 85] | < 100 nM
25 | O=C1CCC(N2C(=O)c3cccc(NCc4cccc(C(=O)NC5CCC(c6cc7cnccc7s6)CC5)c4)c3C2=O)C(=O)N1 (centres unmarked) [Example 51] | < 100 nM
26 | O=C1CCC(N2C(=O)c3cccc(NCCCCC(=O)NC4CCC(c5nc6c(cnc7[nH]cc(C8CCOCC8)c76)[nH]5)CC4)c3C2=O)C(=O)N1 (centres unmarked) [Example 109] | < 100 nM
27 | O=C1CCC(N2C(=O)c3cccc(NCCCCC(=O)NC4CCC(c5nc6ccncc6[nH]5)CC4)c3C2=O)C(=O)N1 (centres unmarked) [Example 6] | < 100 nM
28 | O=C1CCC(N2C(=O)c3cccc(NCc4cccc(C(=O)NC5CCC(c6nc7ccncc7n6C6COC6)CC5)c4)c3C2=O)C(=O)N1 (centres unmarked) [Example 101] | < 100 nM
29 | O=C1CCC(N2C(=O)c3cccc(NCc4cccc(NC(=O)[C@H]5CC[C@H](c6nc7cccnc7s6)CC5)c4)c3C2=O)C(=O)N1 (some centres unmarked) [Example 59] | < 100 nM
30 | O=C1CCC(N2C(=O)c3cccc(NCc4cccc(C(=O)NC5CCC(c6n[nH]c7ccccc67)CC5)c4)c3C2=O)C(=O)N1 (centres unmarked) [Example 15] | < 100 nM
31 | O=C1CCC(N2C(=O)c3cccc(NCc4cccc(C(=O)NC5CCC(c6nsc7ccccc67)CC5)c4)c3C2=O)C(=O)N1 (single isomer, unassigned) [Example 52] | < 100 nM
32 | Cn1c(C2CCC(NC(=O)c3cccc(CNc4cccc5c4C(=O)N(C4CCC(=O)NC4=O)C5=O)c3)CC2)nc2ccccc21 (centres unmarked) [Example 33] | < 100 nM
33 | Cn1c(C2CC3(CC(NC(=O)c4cccc(CNc5cccc6c5C(=O)N(C5CCC(=O)NC5=O)C6=O)c4)C3)C2)nc2ccncc21 (centres unmarked) [Example 69] | < 100 nM
34 | Cn1c2ccncc2nc1[C@H]1CC[C@H](C(=O)Nc2cccc(CNc3cccc4c3C(=O)N(C3CCC(=O)NC3=O)C4=O)c2)CC1 (some centres unmarked) [Example 36] | < 100 nM
35 | O=C1CCC(N2C(=O)c3cccc(NCc4ccnc(C(=O)NC5CCC(c6nc7ccccc7[nH]6)CC5)c4)c3C2=O)C(=O)N1 (centres unmarked) [Example 19] | < 100 nM
36 | O=C1CCC(N2C(=O)c3cccc(NCCCCC(=O)NC4CCC(c5nc6c(cnc7[nH]ccc76)[nH]5)CC4)c3C2=O)C(=O)N1 (centres unmarked) [Example 29] | < 100 nM
37 | O=C1CCC(N2C(=O)c3cccc(NCc4cccc(C(=O)NC5CCC(c6nsc7ccccc67)CC5)c4)c3C2=O)C(=O)N1 (single isomer, unassigned) [Example 53] | < 100 nM
38 | Cn1c(C2CCC(NC(=O)c3cc(CNc4cccc5c4C(=O)N(C4CCC(=O)NC4=O)C5=O)ccn3)CC2)nc2ccncc21 (centres unmarked) [Example 25] | < 100 nM
